Measurements from patent US20220047720A1, “CONJUGATES AND NANOPARTICLES OF HYALURONIC ACID AND EPIGALLOCATECHIN-3-O-GALLATE AND USES THEREOF” (Agency for Science, Technology and Research, priority 2018, published 2022).
Counter-ions that a name gives are not always drawn.

Key:
NB4 cells = experiment: Quantitative evaluation of differentiation in AML cells (CD11b, CD14, CD15 by flow cytometry); format: cell-based, human; conditions: three days, ATRA, PMA (100 ng/mL), A3D8 (0.6 μg/mL), EGCG (38 μM), HA equivalent
Experimental: AML cells were seeded at 1×10^5 cells in 1 mL per well in 24-well plates and were incubated for 2 h with 5% CO2 at 37° C. […] ATRA (1 mM), PMA (100 ng/mL) and A3D8 (0.6 μg/mL) were included as positive controls. After three days of incubation, the cells were harvested and examined for signs of differentiation by assessing cell surface antigen expression. To label the cell surface antigens, the cells were suspended in PBS (pH 7.4) containing 0.2% (v/v) BSA and then incubated at 4° C. for 30 min with mouse anti-human FITC-conjugated CD11b, Cy7-conjugated CD14 and Cy5-conjugated CD15 antibodies (2 μg/mL each). Mouse IgG1 isotype antibody was used as control. After that, the cells were washed three times with PBS containing 0.2% (v/v) BSA and the level of antibody binding was determined by flow cytometry using a fluorescence-activated cell sorter BD LSR II (BD Biosciences, Calif.). Each measurement comprised of acquisition of at least 1×10^4 cells and the analyses were considered as informative when adequate numbers of events (>100) were collected in the enumeration gates. To quantify the percentage of antigen-expressing cells, the cells were defined to be positive for the antigens if they fell within the gating region pre-set to include <2% of untreated control cells.

MOLM-14 cells = experiment: In vitro anti-leukemic activity, CellTiter-Glo assay, and median-effect combination index; conditions: 3 days
Experimental: (§3) MOLM-14 and MV-4-11 cells (ATCC, USA) were maintained in RPMI 1640 media supplemented with 10% (v/v) fetal bovine serum (FBS) and 1% (v/v) penicillin/streptomycin. The cells seeded on white-walled 96-well plates (1×10^4 cells per well) were incubated in 100 μL of 10% FBS-supplemented media containing either sunitinib- or sorafenib-loaded nanoparticles and the respective free drugs at various concentrations. […] After treatment for 3 days, 100 μL of the CellTiter-Glo assay reagent was added to each well of the plates. After incubation for 10 min at 25° C., cellular luminescence was measured using a Tecan Infinite 200 microplate reader (Tecan Group, Switzerland). Results were expressed as percentages of the luminescence signal of analysed cells relative to untreated controls.

[1] = Dispersion stability in water (appearance); format: physicochemical; conditions: suspended in water at the same sorafenib concentration
Source text: Based on the drug loading capacity and particle size, three compositions were selected for in vitro anti-leukemic activity studies (in Example 3) and were named as Sora-NP-1 to Sora-NP-3 (Table 2). Among them, Sora-NP-1 had the smallest particle size with the lowest sorafenib loading capacity. […] This provides indirect evidence that sorafenib molecules were stably encapsulated in the interior of Sora-NP. The excellent dispersion stability of Sora-NP compositions would be beneficial for their clinical applications.

MV-4-11 cells = experiment: In vitro anti-leukemic activity, CellTiter-Glo assay, and median-effect combination index; format: cell-based; conditions: 3 days
Experimental: as §3

[2] = system: patient-derived AML cells named Leu 14; experiment: Patient-derived AML xenograft mouse model; format: in vivo
Experimental: All animal experiments were performed according to the protocols approved by IACUC at the Biological Resource Centre, Singapore. A pre-clinical patient-derived liquid xenograft mouse model was established based on a previous report (Z. Her, et al., J. Hematol. Oncol. 2017, 10, 162). Briefly, NOD-scid II2rg^−/− (NSG) newborn pups were sub-lethally irradiated at 1 Gy and engrafted with patient-derived AML cells named Leu 14. When the proportion of human CD45^+ cells in peripheral blood reached around 10-15%, the mice were randomly divided into 3 groups. The first group received intravenous injections of isotonic dextrose solution containing Sora-NP-1 at a sorafenib dose of 0.4 mg kg^−1 twice weekly for 4 weeks. For comparison, another group of mice received intravenous injections of free sorafenib solution prepared in saline-DMSO mixture (95:5, v/v) at an equivalent dose. […] At selected time points, the proportion of human CD45^+ cells in the peripheral blood, spleen and bone marrow was examined by flow cytometry analysis using a LSR II flow cytometer (BD Biosciences).

HEK293 cells = experiment: In vitro cell viability assay (CellTiter-Glo), normal cells; format: cell-based, human; conditions: 72 h
Experimental: (§1) The human AML cell line HL60, human embryonic kidney cell line HEK293 and primary human umbilical vein endothelial (HUVEC) cells were purchased from the American Type Culture Collection (ATCC). The human AML cell lines NB4 was kindly donated by the Cancer Science Institute, Singapore. All the AML cells were cultured in RPMI 1640 medium supplemented with 10% fetal bovine serum (FBS) and maintained in density of 2×10^5 to 1×10^6 cells/mL. HEK293 cells were cultured in DMEM medium supplemented with 10% FBS while HUVEC cells were maintained in EBM™-2 Endothelial Cell Growth Basal Medium supplemented with endothelial cell growth medium SingleQuots™ supplements and growth factors. All the cells were maintained in a humid incubator with 5% CO2 at 37° C.
(§2) All cells (HL60, NB4, HEK293 and HUVEC cells) were seeded at 1×10^4 cells per […] per well in 96-well plates. […] After drug treatment, the cell viability was evaluated using the CellTiter-Glo™ Luminescent Cell Viability Assay Kit (Promega, Madison, Wis.) following the manufacturer's instructions. The luminescence from each well was measured using a Tecan Infinite microplate reader (Tecan Group, Switzerland). The final cell viability values were expressed as percentages derived from the luminescence intensity from the treated cells relative to untreated cells. […]

HUVEC cells = experiment: as above; format: cell-based, human; conditions: 72 h
Experimental: as §1, §2

[3] = equivalent sorafenib concentrations
[4] = equivalent sunitinib concentrations

## CC1=C(/C=C/C(C)=C/C=C/C(C)=C/C(=O)O)C(C)(C)CCC1 [ATRA, all-trans retinoic acid]
NB4 cells
  differentiation marker expression: greatest increase in the three antigen expression levels and the proportion of antigen-expressing cells

## CNC(=O)c1cc(Oc2ccc(NC(=O)Nc3ccc(Cl)c(C(F)(F)F)c3)cc2)ccn1 [free sorafenib, Sorafenib tosylate]
MOLM-14 cells; 200 nM sorafenib
  cells eradicated / reduction of the cell viability: ~14%
MOLM-14 cells; [3]
  order of effectiveness (anti-leukemic activity): Sora-NP-1>Sora-NP-2>Sora-NP-3>free sorafenib
[1]
  Appearance of dispersion in water: heavily flocculated and eventually precipitated
MV-4-11 cells; [3]
  order of effectiveness (anti-leukemic activity): Sora-NP-1>Sora-NP-2>Sora-NP-3>free sorafenib
[2]; i.v., sorafenib dose 0.4 mg kg^−1 twice weekly for 4 weeks, versus untreated control
  AML cell proliferation in the peripheral blood (human CD45+ cells): only a slight delay of AML progression
[2]; sorafenib dose 0.4 mg kg^−1
  time at which treated mice started to die: 12 to 14 days

## CCN(CC)CCNC(=O)c1c(C)[nH]c(/C=C2\C(=O)Nc3ccc(F)cc32)c1C [free sunitinib, Sunitinib malate]
MOLM-14 cells; [4]
  order of effectiveness (anti-leukemic activity): Suni-NP-1>Suni-NP-2>free sunitinib>Suni-NP-3>Suni-NP-4
MV-4-11 cells; [4]
  order of effectiveness (anti-leukemic activity): Suni-NP-1>Suni-NP-2>free sunitinib>Suni-NP-3>Suni-NP-4

## Epigallocatechin-3-gallate [EGCG]
HEK293 cells
  EGCG equivalent concentration with greater toxicity than HA-EGCG (B): 76 µM
HUVEC cells
  EGCG equivalent concentration range with greater toxicity than HA-EGCG (B): 15 to 76 µM
